According to patent publication US20260062443A1 (ALEXION PHARMACEUTICALS, INC., priority 2022, published 2026):

What follows are compounds tested against T1, Human complement C1s enzyme (Homo sapiens, UniProt P09871) (assay: Human C1s enzyme assay). Settings: human complement C1s enzyme 1.16 nM, substrate Z-L-Lys-SBzl 100 μM, 5 min preincubation; read-out: IC50 (Stars), C1s Inhibiting Activity.
T1 sequence (P09871 438-688 limits assumed): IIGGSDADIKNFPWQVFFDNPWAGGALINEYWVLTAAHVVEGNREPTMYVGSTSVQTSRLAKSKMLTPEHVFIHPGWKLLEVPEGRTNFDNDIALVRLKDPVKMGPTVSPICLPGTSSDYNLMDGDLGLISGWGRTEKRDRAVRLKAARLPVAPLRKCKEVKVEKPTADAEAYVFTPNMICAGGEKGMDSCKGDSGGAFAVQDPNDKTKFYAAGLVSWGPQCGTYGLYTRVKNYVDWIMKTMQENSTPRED
T1 sequence (P09871 16-437 partner limits assumed): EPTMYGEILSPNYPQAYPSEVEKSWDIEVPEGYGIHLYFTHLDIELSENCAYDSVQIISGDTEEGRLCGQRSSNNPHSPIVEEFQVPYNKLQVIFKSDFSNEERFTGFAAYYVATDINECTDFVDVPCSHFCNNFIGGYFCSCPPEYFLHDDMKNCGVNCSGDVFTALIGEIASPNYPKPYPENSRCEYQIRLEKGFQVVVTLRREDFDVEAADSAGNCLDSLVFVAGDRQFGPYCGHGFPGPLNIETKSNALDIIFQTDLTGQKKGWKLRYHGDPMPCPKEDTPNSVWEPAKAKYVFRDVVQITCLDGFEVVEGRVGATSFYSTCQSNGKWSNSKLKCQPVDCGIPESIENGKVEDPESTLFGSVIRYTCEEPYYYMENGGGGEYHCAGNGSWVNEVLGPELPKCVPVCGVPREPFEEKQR
Type: biochemical
Method in brief: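 IC50 from nonlinear regression of reaction rates versus compound concentration, with rates taken from A405 recorded at 30 s intervals over 30 min after adding 100 μM Z-L-Lys-SBzl plus 100 μM DTNB. Enzyme was human C1s purified from serum, 1.16 nM, given 5 min compound preincubation at room temperature, pH 7.5 Tris/1 M NaCl.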

IC50 [nM]	Compound
< 100	COC[C@@]1(F)C[C@@H](C(=O)N[C@H](C)c2cc3cnccc3[nH]2)N(C(=O)CNC(=O)c2ccc(Oc3ccc(F)cc3)cc2)C1 [Compound 175, (2S,4R)-N-((R)-1-(1H-pyrrolo[3,2-c]pyridin-2-yl)ethyl)-4-fluoro-1-((4-(4-fluorophenoxy)benzoyl)glycyl)-4-(methoxymethyl)pyrrolidine-2-carboxamide]
> 1000	C[C@@H](NC(=O)[C@@H]1C[C@]2(C)C[C@@H]2N1C(=O)CNC(=O)c1ccc2c(c1)-c1ccccc1C2(F)F)c1cc2cnccc2[nH]1 [Compound 76, (1S,3S,5S)-N-((R)-1-(1H-pyrrolo[3,2-c]pyridin-2-yl)ethyl)-2-((9,9-difluoro-9H-fluorene-3-carbonyl)glycyl)-5-methyl-2-azabicyclo[3.1.0]hexane-3-carboxamide]
< 100	O=C(NCC(=O)N1C[C@H](OC(F)F)C[C@H]1C(=O)NCc1cc2cnccc2[nH]1)c1ccc2oc3cccc(F)c3c2c1 [Compound 369, (2S,4R)-N-((1H-pyrrolo[3,2-c]pyridin-2-yl)methyl)-4-(difluoromethoxy)-1-((9-fluorodibenzo[b,d]furan-2-carbonyl)glycyl)pyrrolidine-2-carboxamide]
> 1000	C[C@@]12C[C@@H]1N(C(=O)CNC(=O)c1cccc(-c3ccccc3)n1)[C@H](C(=O)NCc1cc3cnccc3[nH]1)C2 [Compound 159, (1S,3S,5S)-N-((1H-pyrrolo[3,2-c]pyridin-2-yl)methyl)-5-methyl-2-((6-phenylpicolinoyl)glycyl)-2-azabicyclo[3.1.0]hexane-3-carboxamide]
100 to 1000	C[C@@]12C[C@@H]1N(C(=O)CNC(=O)CCCOc1ccccc1)[C@H](C(=O)N[C@@H]1CCn3c(CN)ccc31)C2 [Compound 78, (1S,3S,5S)-N-((R)-5-(aminomethyl)-2,3-dihydro-1H-pyrrolizin-1-yl)-5-methyl-2-((4-phenoxybutanoyl)glycyl)-2-azabicyclo[3.1.0]hexane-3-carboxamide]
100 to 1000	C[C@@H](NC(=O)[C@@H]1C[C@]2(C)C[C@@H]2N1C(=O)CNC(=O)CCCOc1ccccc1)c1cc2cnccc2[nH]1 [Compound 56, (1S,3S,5S)-N-((R)-1-(1H-pyrrolo[3,2-c]pyridin-2-yl)ethyl)-5-methyl-2-((4-phenoxybutanoyl)glycyl)-2-azabicyclo[3.1.0]hexane-3-carboxamide]
< 100	C[C@@]12C[C@@H]1N(C(=O)CNC(=O)c1cccc(Oc3ccc(F)cc3)c1)[C@H](C(=O)NCc1cc3cnccc3[nH]1)C2 [Compound 153, (1S,3S,5S)-N-((1H-pyrrolo[3,2-c]pyridin-2-yl)methyl)-2-((3-(4-fluorophenoxy)benzoyl)glycyl)-5-methyl-2-azabicyclo[3.1.0]hexane-3-carboxamide]
< 100	COC[C@@]1(F)C[C@@H](C(=O)N[C@H](C)c2cc3cnccc3[nH]2)N(C(=O)CNC(=O)c2ccc3c(c2)-c2ccccc2C3(F)F)C1 [Compound 73, (2S,4R)-N-((R)-1-(1H-pyrrolo[3,2-c]pyridin-2-yl)ethyl)-1-((9,9-difluoro-9H-fluorene-3-carbonyl)glycyl)-4-fluoro-4-(methoxymethyl)pyrrolidine-2-carboxamide]
< 100	C[C@@H](NC(=O)[C@@H]1C[C@]2(C)C[C@@H]2N1C(=O)CN1Cc2cc(-c3ccc(F)cc3F)ccc2C1=O)c1cc2cnccc2[nH]1 [Compound 113, (1S,3S,5S)-N-((R)-1-(1H-pyrrolo[3,2-c]pyridin-2-yl)ethyl)-2-(2-(5-(2,4-difluorophenyl)-1-oxoisoindolin-2-yl)acetyl)-5-methyl-2-azabicyclo[3.1.0]hexane-3-carboxamide]
100 to 1000	O=C(NCC(=O)N1CC2(C[C@H]1C(=O)NCc1cc3cnccc3o1)OCCO2)c1ccc2c(c1)Oc1ccccc1S2 [Compound 50, (S)-N-(furo[3,2-c]pyridin-2-ylmethyl)-7-((phenoxathiine-3-carbonyl)glycyl)-1,4-dioxa-7-azaspiro[4.4]nonane-8-carboxamide]
< 100	C[C@@H](NC(=O)[C@@H]1C[C@@H](OC(F)F)CN1C(=O)CNC(=O)c1cccc(Oc2ccc(F)cc2)c1)c1cc2cnccc2[nH]1 [Compound 241, (2S,4R)-N-((R)-1-(1H-pyrrolo[3,2-c]pyridin-2-yl)ethyl)-4-(difluoromethoxy)-1-((3-(4-fluorophenoxy)benzoyl)glycyl) pyrrolidine-2-carboxamide]
< 100	O=C(NCC(=O)N1CC2(C[C@H]1C(=O)NCc1cc3cnccc3s1)OCCO2)c1ccc2c(c1)Oc1ccccc1S2 [Compound 54, (S)-7-((phenoxathiine-3-carbonyl)glycyl)-N-(thieno[3,2-c]pyridin-2-ylmethyl)-1,4-dioxa-7-azaspiro[4.4]nonane-8-carboxamide]
< 100	Cc1ccc(Oc2cccc(C(=O)NCC(=O)N3C[C@H](OC(F)F)C[C@H]3C(=O)NCc3cc4cnccc4[nH]3)c2)c(F)c1 [Compound 260, (2S,4R)-N-((1H-pyrrolo[3,2-c]pyridin-2-yl)methyl)-4-(difluoromethoxy)-1-((3-(2-fluoro-4-methylphenoxy)benzoyl)glycyl) pyrrolidine-2-carboxamide]
> 1000	O=C(NCC(=O)N1C[C@H](OC(F)F)C[C@H]1C(=O)NCc1ccc2ccncc2c1)c1ccc2c(c1)Oc1ccccc1S2 [Compound 249, (2S,4R)-4-(difluoromethoxy)-N-(isoquinolin-7-ylmethyl)-1-((phenoxathiine-3-carbonyl)glycyl)pyrrolidine-2-carboxamide]
< 100	C[C@@]12C[C@@H]1N(C(=O)CNC(=O)c1ccc3oc4ccccc4c3c1)[C@H](C(=O)NCc1cc3cnccc3[nH]1)C2 [Compound 203, (1S,3S,5S)-N-((1H-pyrrolo[3,2-c]pyridin-2-yl)methyl)-2-((dibenzo[b,d]furan-2-carbonyl)glycyl)-5-methyl-2-azabicyclo[3.1.0]hexane-3-carboxamide]
< 100	O=C(NCC(=O)N1C[C@H](OC(F)F)C[C@H]1C(=O)NCc1cc2cnccc2[nH]1)c1cccc(Oc2ccc(F)cc2)c1 [Compound 154, (2S,4R)-N-((1H-pyrrolo[3,2-c]pyridin-2-yl)methyl)-4-(difluoromethoxy)-1-((3-(4-fluorophenoxy)benzoyl)glycyl)pyrrolidine-2-carboxamide]
< 100	COC[C@@H]1C[C@@H](C(=O)N[C@H](C)c2cc3cnccc3[nH]2)N(C(=O)CNC(=O)c2ccc3c(c2)Oc2ccccc2S3)C1 [Compound 149, (2S,4R)-N-((R)-1-(1H-pyrrolo[3,2-c]pyridin-2-yl)ethyl)-4-(methoxymethyl)-1-((phenoxathiine-3-carbonyl)glycyl)pyrrolidine-2-carboxamide]
< 100	C[C@@H](NC(=O)[C@@H]1C[C@@H](OC(F)F)CN1C(=O)CNC(=O)c1ccc2c(c1)C(F)(F)c1ccccc1-2)c1cc2cnccc2[nH]1 [Compound 167, (2S,4R)-N-((R)-1-(1H-pyrrolo[3,2-c]pyridin-2-yl)ethyl)-1-((9,9-difluoro-9H-fluorene-2-carbonyl)glycyl)-4-(difluoromethoxy)pyrrolidine-2-carboxamide]
< 100	Cc1ccsc1Oc1cccc(C(=O)NCC(=O)N2C[C@H](OC(F)F)C[C@H]2C(=O)NCc2cc3cnccc3[nH]2)c1 [Compound 385, (2S,4R)-N-((1H-pyrrolo[3,2-c]pyridin-2-yl)methyl)-4-(difluoromethoxy)-1-((3-((3-methylthiophen-2-yl)oxy)benzoyl)glycyl) pyrrolidine-2-carboxamide]
